“Also recorded” adds a separate entry of the source. Bounds are passed on as bounds.

The subject of assay [1] is RPE1 cells. The assay is described as follows: Analysis of mitosis and daughter cell fate, RPE1. Type of assay: cell-based, human. Particulars: RPE1, only mitotic events with clear missegregation, FIG. 18B. As to the method:
Analysis of mitosis and daughter cell fate. […] Cells were seeded into 96-well cycloolefin plates at 5000 cells/well, 8-10 hours before imaging. Movies were acquired on the CV1000 with a 40×0.95 NA U-PlanApo objective. The imaging chamber was maintained at 37° C. and 5% CO2. Image acquisition and data analysis were performed using CellVoyager software. 20 fields/well were imaged. For HeLa and NIH/3T3 cells, 5×2 μm z-sections in the GFP (25% power, 125 ms, 30% gain) and RFP (25% power, 100 ms, 30% gain) channels were captured in each field, at 5-minute intervals for 24 hours. For RPE1 cells, 5×2 μm z-sections in the GFP (20% power, 100 ms, 30% gain) and RFP (25% power, 100 ms, 30% gain) channels were captured in each field, at 5-minute intervals for 8 hours. To track RPE1 daughter cell fate, imaging was then switched to 3×4 μm z-sections in the RFP channel only, at 10-minute intervals for 48 hours. Mitosis was measured from nuclear envelope breakdown to anaphase onset (or arrest). Results represent combined measurements of 100 mother cells per condition from 2-4 independent experiments.
To study the correlation between mother cell prometaphase duration and daughter cell fate, RPE1 cells co-expressing centrin-GFP and H2B-RFP were seeded into 96-well cycloolefin plates at 5000 cells/well, 8-10 hours before imaging. Cells were treated with 80 nM nocodazole and immediately imaged on the CV1000 system with a 40×0.95 NA U-PlanApo objective. The imaging chamber was maintained at 37° C. and 5% CO2. 20 fields/well were imaged. 5×2 Lm z-sections in the GFP (20% power, 100 ms, 30% gain) and RFP (25% power, 100 ms, 30% gain) channels were captured in each field, at 5-minute intervals for 6 hours. The plate was then removed from the microscope, and wells were washed 6 times with warm medium. The plate was returned to the microscope, and imaging was resumed, capturing 3×4 Lm z-sections in the RFP channel only, at 10-minute intervals for 50 hours. To study the effect of chromosome missegregation on daughter cell fate, cells were treated with 1 LM NMS-P715 to inhibit the spindle assembly checkpoint kinase Mps1, then imaged as described above. Only mitotic events with clear missegregation (lagging chromosomes and subsequent formation of daughter cells with micronuclei) were analyzed. For both experiments, results represent combined measurements of 100 mother cells from 2 independent experiments.

Assay [2] has as its system full-length mouse Plk4-YFP. The assay is described as follows: Plk4 stabilization assay, Plk4-YFP DLD-1 cells. Particulars: 250 nM, 24 hours. Type of assay: cell-based, human. As to the method:
Plk4 stabilization assay. Expression was induced in Plk4-YFP DLD-1 cells using 1 μg/ml doxycycline. At the same time, cells were treated with the indicated concentrations of compounds. Cells were incubated for 24 hours before harvesting for Western blotting (see below).
Western blotting. […] Cell extracts were stored at −80° C. until use.

In assay [3] the test system is HeLa cells. Nature of the assay: Quantification of centrosome numbers from fixed samples, HeLa. The class given is cell-based, human. Particulars: HeLa, 50 or 100 nM. As to the method:
Quantification of centrosome numbers from fixed samples. Cells were seeded onto poly-D-lysine-coated coverslips (Neuvitro) in 12-well plates at least 8 hours before fixation. At the required timepoints for each experiment, cells were washed once with PBS and fixed in 100% methanol (−20° C., 5 minutes). Fixed cells were washed with PBS, blocked with PBS+4% BSA+0.1% Triton X-100, and stained with primary antibodies against γ-tubulin and Cep192, which localize to the pericentriolar material and proximal to the outer centriole wall, respectively (47, 48). Alexa488-labeled anti-mouse secondary antibody (against anti-γ-tubulin) and Alexa647-labeled anti-rabbit secondary antibody (against anti-Cep192) were both used at 1.5 jag/mL. Samples were mounted onto slides with Prolong Gold antifade reagent (Life Technologies). Images of fixed interphase cells were acquired on a Nikon Eclipse E800 with a 60×1.4 NA PlanApo objective and ORCA-ER camera (Hamamatsu) using Metamorph software (Molecular Devices). Quantification of foci was performed manually. A focus was defined as a bona-fide centrosome if it was positive for both γ-tubulin and Cep192 (true for >95% of foci).

Assay [4] deals with T1, human Plk4 kinase domain (aa 2-275) (Homo sapiens, UniProt O00444).
T1 construct: purified 6×His-tagged human Plk4 kinase domain (aa 2-275); 6xHis; made in house; host or cells: E. coli
T1 sequence (O00444 2-275): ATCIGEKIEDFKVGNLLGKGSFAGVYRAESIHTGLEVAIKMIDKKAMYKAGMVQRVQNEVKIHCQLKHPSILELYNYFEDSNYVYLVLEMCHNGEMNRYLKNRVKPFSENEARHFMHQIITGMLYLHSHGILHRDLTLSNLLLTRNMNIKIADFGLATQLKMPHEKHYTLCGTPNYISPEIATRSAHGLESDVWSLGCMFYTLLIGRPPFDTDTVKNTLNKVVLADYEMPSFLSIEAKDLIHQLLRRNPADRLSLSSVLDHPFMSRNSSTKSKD
Nature of the assay: Plk4 kinase assay (ADP-Glo). Type of assay: biochemical. The note with it: Table 1. An outline of the steps:
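Enzyme at 2.5-10 nM final, pH 8.0, reacted 4-16 hours at 25° C; ADP generation read by ADP-Glo luminescence. Ki derived from IC50 by Cheng-Prusoff or, for tight binders, Copeland formalism.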
Background: In ADP-Glo the light output rises with the ADP produced.

In the case of `CCc1cccc(CC)c1NC(=O)c1nn(C)c2c1CCc1cnc(Nc3ccc(C(=O)NC4CCN(C)CC4)cc3OC(F)(F)F)nc1-2` [NMS-P715], in assay [1], the “percentage of daughters not dividing within 48 hours” value is listed as 11.4%.

For `COc1ccc2c(c1)[C@]1(C[C@H]1c1ccc3c(/C=C/c4ccc(CN5C[C@@H](C)O[C@@H](C)C5)cc4)n[nH]c3c1)C(=O)N2` (relative stereo) [CFI-400945, (1R,2S).2-(3-((E).4-(((cis).2,6-dimethylmorpholino)methyl)styryl). 1H.indazol-6-yl)-5′-methoxyspiro[cyclopropane-1,3′-indolin]-2′-one, reference compound], the Plk4-YFP stabilization entry in assay [2] is listed as “only slight Plk4-YFP stabilization”. Further, the “nuclear morphology and division” value in assay [3] is recorded as “become grossly multinuclear”. Moreover, in assay [3] (3 days), the “effect on centrosome number” value is “causes centrosome amplification; also recorded: does not deplete centrioles from cells; also recorded: induces centrosome amplification”.

Broadly, the IC50 is the concentration that inhibits the measured activity by half. The compound `CCOc1c(Nc2cc(C)[nH]n2)nc(Sc2ccc(NC(=O)C3CC3)cc2)nc1N(C)C` [drawing 129] gave an IC50 in assay [4] of 100 to 1000 nM.

The compound `CNCCN1CCN(c2nc(Sc3ccc(NC(=O)C4CC4)cc3)nc(Nc3cc(C)[nH]n3)c2OC)CC1` returned an IC50 in assay [4] below 1000 nM.

`COc1c(Nc2cc(C)[nH]n2)nc(Sc2ccc(S(=O)(=O)Cc3cccc(C(=O)N(C)C)c3F)cc2F)nc1N1CCOCC1`: in assay [4], the IC50 is below 1000 nM.

On to `COc1c(Nc2cc(C)[nH]n2)nc(Sc2ccc(NC(C)=O)cc2)nc1N1CCOC[C@@H]1C`, for which the IC50 in assay [4] is below 1000 nM.

In assay [4], `COc1c(Nc2cc(C)[nH]n2)nc(Sc2ccc(S(=O)(=O)c3cccc([N+](=O)[O-])c3)cc2F)nc1N1CCOCC1` registered an IC50 below 1000 nM.

Consider `COc1c(Nc2cc(C)[nH]n2)nc(Sc2ccc(S(=O)(=O)Cc3ccccc3)cc2)nc1N1CCN(C)CC1`, for which, in assay [4], the IC50 was below 1000 nM.

In assay [4], `CCOc1c(Nc2cc(C)[nH]n2)nc(Sc2ccc(NC(C)=O)cc2)nc1N1CCNCC1` displayed an IC50 of 100 to 1000 nM.

`COCCN(C)c1nc(Sc2ccc(NC(=O)C3CCCC3)cc2)nc(Nc2cc(C)[nH]n2)c1OC`: the IC50 in assay [4] lay in the range of 100 to 1000 nM.

Take `COc1c(Nc2cc(C)[nH]n2)nc(Sc2ccc(S(=O)(=O)Cc3cccc(C(N)=O)c3)cc2)nc1N1CCN(CCN(C)C)CC1`: the IC50 in assay [4] is below 1000 nM.

Compound `COc1c(Nc2cc(C)[nH]n2)nc(Sc2ccc(NC(C)=O)cc2)nc1N1CCN(C2CCN(C)CC2)CC1` came in with an IC50 in assay [4] below 1000 nM.

Take `COc1c(Nc2cc(C)[nH]n2)nc(Sc2ccc(S(=O)(=O)Cc3ccccc3C(=O)N(C)C)cc2)nc1N1CCN(CCN(C)C)CC1`: the IC50 in assay [4] was below 1000 nM.

In assay [4], `COc1c(Nc2cc(C)[nH]n2)nc(Sc2ccc(S(=O)(=O)Cc3cccc(C)c3)cc2)nc1N1CCN(CCN(C)C)CC1` came in with an IC50 below 1000 nM.

For the compound `CCOc1c(Nc2cc(C)[nH]n2)nc(Sc2ccc(NC(C)=O)cc2)nc1N1CCCCC1`, the IC50 in assay [4] is 100 to 1000 nM.

On to `COc1c(Nc2cc(C)[nH]n2)nc(Sc2ccc(S(=O)(=O)Cc3ncc[nH]3)cc2)nc1N1CCN(CCN(C)C)CC1`, for which the IC50 in assay [4] is below 1000 nM.

`CCN(CC)c1nc(Sc2ccc(S(=O)(=O)Cc3ccccc3)cc2)nc(Nc2cc(C)[nH]n2)c1OC` had an IC50 in assay [4] below 1000 nM.

The compound `COc1c(Nc2cc(C)[nH]n2)nc(Sc2ccc(S(=O)(=O)Cc3cccc(C(=O)N(C)C)c3)cc2)nc1N1CCN(CCN(C)C)CC1` returned an IC50 in assay [4] below 1000 nM.

Compound `Cc1cc(Nc2nc(Sc3ccc(NC(=O)C4CC4)cc3)nc3c2C(C)CC3)n[nH]1` (stereo not drawn) gave an IC50 in assay [4] below 1000 nM.

In assay [4], `COc1c(Nc2cc(C)[nH]n2)nc(Sc2ccc(NC(C)=O)cc2)nc1N1CCN(CCNC(=N)N)CC1` came in with an IC50 below 1000 nM.

With `COc1c(Nc2cc(C)[nH]n2)nc(Sc2ccc(S(C)(=O)=O)cc2)nc1C1CCN(CCN(C)C)CC1`, the IC50 in assay [4] fell in the range of 100 to 1000 nM.

For the compound `COC(=O)CC1CCN(c2nc(Sc3ccc(NC(C)=O)cc3)nc(Nc3cc(C)[nH]n3)c2OC)CC1`, in assay [4], the IC50 is below 1000 nM.

Take `COc1c(Nc2cc(C)[nH]n2)nc(Sc2ccc(S(=O)(=O)Cc3ccccc3)cc2)nc1N1CCO[C@H](C)C1`: in assay [4], the IC50 is below 1000 nM.

`CCCOc1c(Nc2cc(C)[nH]n2)nc(Sc2ccc(S(=O)(=O)Cc3ccccc3)cc2)nc1N1CCN(CCN(C)C)CC1`: the IC50 in assay [4] is below 1000 nM.

Take `COc1c(Nc2cc(C)[nH]n2)nc(Sc2ccc(S(=O)(=O)Nc3cccc([N+](=O)[O-])c3)cc2F)nc1N1CCOCC1`: the IC50 in assay [4] is below 1000 nM.

(Values after patent US10752612B2, “PLK4 inhibitors” (LUDWIG INSTITUTE FOR CANCER RESEARCH LTD, priority 2015, dated 2020).)
